Assay results taken from the supplement of paper PMC11061612.

How the values were obtained:
Test in all cases: Bliss excess, mean over the matrix (fraction); higher = more synergy
[1] = system: HH (T-Cell Non-Hodgkin's Lymphoma)
Method in brief: (§1)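 Cell lines in DMEM/F12 or RPMI with 10% FBS were plated in 1536-well plates, held 24 hours at 37°C, 5% CO2, then given two-drug dose matrices for 72 hours (DMSO typically 0.2%). Viability was read by CellTiter-Glo 2.0 luminescence and scaled as inhibition from 0 (vehicle wells) to 1 (blank wells). Combination Emax is the second-highest inhibition in the matrix; Bliss excess is observed combination effect minus expected EA + EB − EA·EB, EA and EB being single-agent effects.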

[2] = system: YAPC (Pancreatic Carcinoma)
Method in brief: as §1

EW-11 (Ewing's Sarcoma) = system: EW-11 (Ewing's Sarcoma)
Method in brief: as §1

[3] = system: LNZTA3WT4 (Low Grade Glioma)
Method in brief: as §1

[4] = system: ALL-PO (B-Lymphoblastic Leukemia)
Method in brief: as §1

[5] = system: CAL-33 (Oral Cavity Carcinoma)
Method in brief: as §1

[6] = system: ESS-1 (Other Solid Carcinomas)
Method in brief: as §1

[7] = system: SW1710 (Bladder Carcinoma)
Method in brief: as §1

LOXIMVI (Melanoma) = system: LOXIMVI (Melanoma)
Method in brief: as §1

[8] = system: HuCCT1 (Biliary Tract Carcinoma)
Method in brief: as §1

[9] = system: BFTC-909 (Kidney Carcinoma)
Method in brief: as §1

GAMG (Glioblastoma) = system: GAMG (Glioblastoma)
Method in brief: as §1

[10] = system: OVCAR-5 (Ovarian Carcinoma)
Method in brief: as §1

[11] = system: L-428 (Hodgkin's Lymphoma)
Method in brief: as §1

Structure (SMILES) | Bliss excess [1] | Bliss excess [2] | Bliss excess (EW-11 (Ewing's Sarcoma)) | Bliss excess [3] | Bliss excess [4] | Bliss excess [5] | Bliss excess [6] | Bliss excess [7] | Bliss excess (LOXIMVI (Melanoma)) | Bliss excess [8] | Bliss excess [9] | Bliss excess (GAMG (Glioblastoma)) | Bliss excess [10] | Bliss excess [11]
CCc1c2c(nc3ccc(O)cc13)-c1cc3c(c(=O)n1C2)COC(=O)[C@]3(O)CC [SN-38] + O=C(c1cc(Cc2n[nH]c(=O)c3ccccc23)ccc1F)N1CCN(C(=O)C2CC2)CC1 [Olaparib] (first compound max 0.3 µM, 7x7, partner max 10 µM) | -0.0275 | 0.0336 | -0.0291 | -0.0114 | 0.0576 | 0.0519 | 0.0735 | 0.037 | 0.0214 | 0.0046 | 0.0897 | 0.109 | -0.0161 | 0.0367
Cc1c2c(nn1C)CSCc1cc(n(C)n1)CSc1cc(c3ccccc3c1)OCCCc1c(C(=O)O)n(C)c3c-2c(Cl)ccc13 [AZD5991] + Nc1ccn([C@@H]2O[C@H](CO)[C@@H](O)C2(F)F)c(=O)n1 [Gemcitabine] (first compound max 1 µM, 7x7, partner max 0.3 µM) | -0.0369 | -0.0165 | -0.0422 | 0.0625 | – | – | -0.0338 | -0.0571 | -0.0338 | -0.0171 | – | -0.0026 | -0.0442 | –
CN(CCO)CC[C@H](CSc1ccccc1)Nc1ccc(S(=O)(=O)NC(=O)c2ccc(N3CCC([C@@H](O)c4ccccc4-c4ccc(Cl)cc4)CC3)cc2)cc1S(=O)(=O)C(F)(F)F [AZD4320] + CS(=O)(=O)CCNCc1ccc(-c2ccc3ncnc(Nc4ccc(OCc5cccc(F)c5)c(Cl)c4)c3c2)o1 [Lapatinib] (first compound max 1 µM, 7x7, partner max 10 µM) | 0.0112 | -0.0148 | 0.0342 | 0.0677 | – | – | 0.0668 | -0.0324 | 0.0113 | -0.0052 | – | 0.1 | -0.0031 | –
C[C@@H](Oc1cc(-c2cnn(C3CCNCC3)c2)cnc1N)c1c(Cl)ccc(F)c1Cl [Crizotinib] + CC1=C(C(=CC=C1)Cl)NC(=O)C2=CN=C(S2)NC3=CC(=NC(=N3)C)N4CCN(CC4)CCO [Dasatinib] (first compound max 10 µM, 7x7, partner max 2 µM) | -0.0138 | 0.0219 | -0.0571 | 0.0429 | – | – | 0.062 | 0.031 | 0.0145 | -0.0274 | – | 0.0164 | 0.0338 | –
CS(=O)(=O)CCNCc1ccc(-c2ccc3ncnc(Nc4ccc(OCc5cccc(F)c5)c(Cl)c4)c3c2)o1 [Lapatinib] + Cn1cnc2c(F)c(Nc3ccc(Br)cc3Cl)c(C(=O)NOCCO)cc21 [Selumetinib] (first compound max 10 µM, 7x7, partner max 10 µM) | -0.0496 | 0.0037 | -0.0259 | -0.0268 | – | – | -0.0075 | -0.0077 | -0.0701 | 0.0208 | – | -0.06 | -0.0161 | –
CC1(C)CCC(CN2CCN(c3ccc(C(=O)NS(=O)(=O)c4ccc(NCC5CCOCC5)c([N+](=O)[O-])c4)c(Oc4cnc5[nH]ccc5c4)c3)CC2)=C(c2ccc(Cl)cc2)C1 [Venetoclax] + CS(=O)(=O)CCNCc1ccc(-c2ccc3ncnc(Nc4ccc(OCc5cccc(F)c5)c(Cl)c4)c3c2)o1 [Lapatinib] (first compound max 1 µM, 7x7, partner max 10 µM) | -0.0178 | -0.012 | 0.0195 | -0.0178 | – | – | 0.0298 | -0.0415 | 0.007 | -0.0803 | – | -0.0231 | -0.0479 | –
O=C(c1cc(Cc2n[nH]c(=O)c3ccccc23)ccc1F)N1CCN(C(=O)C2CC2)CC1 [Olaparib] + COc1nnc2ccc(N3CCC(c4ccc(OCCN5CCN(C)C(=O)[C@H]5C)cc4)CC3)nn12 [AZD5153] (first compound max 10 µM, 7x7, partner max 1 µM) | -0.0066 | -0.0239 | -0.0063 | -0.0516 | – | – | -0.0139 | 0.0021 | -0.0792 | -0.0637 | – | -0.002 | -0.0584 | –
Cc1c2c(nn1C)CSCc1cc(n(C)n1)CSc1cc(c3ccccc3c1)OCCCc1c(C(=O)O)n(C)c3c-2c(Cl)ccc13 [AZD5991] + CS(=O)(=O)CCNCc1ccc(-c2ccc3ncnc(Nc4ccc(OCc5cccc(F)c5)c(Cl)c4)c3c2)o1 [Lapatinib] (first compound max 1 µM, 7x7, partner max 10 µM) | -0.0635 | -0.0084 | -0.0014 | 0.0355 | – | – | 0.0292 | -0.0639 | 0.017 | 0.0065 | – | 0.0088 | -0.0071 | –
Cc1c2c(nn1C)CSCc1cc(n(C)n1)CSc1cc(c3ccccc3c1)OCCCc1c(C(=O)O)n(C)c3c-2c(Cl)ccc13 [AZD5991] + CC(=O)O[C@H]1C(=O)[C@@]2(C)[C@H]([C@H](OC(=O)c3ccccc3)[C@]3(O)C[C@H](OC(=O)[C@H](O)[C@@H](NC(=O)c4ccccc4)c4ccccc4)C(C)=C1C3(C)C)[C@]1(OC(C)=O)CO[C@@H]1C[C@@H]2O [Paclitaxel] (first compound max 1 µM, 7x7, partner max 3 µM) | 0.0737 | 0.0224 | 0.0039 | -0.0447 | – | – | 0.0341 | -0.0241 | -0.0081 | -0.0164 | – | 0.039 | -0.0389 | –
